In US20230151376A1, “ORGANELLE TRANSFORMANT SCREENING METHOD” (NATIONAL UNIVERSITY CORPORATION KOBE UNIVERSITY, priority 2020, published 2023):

Experiments:
[1] = tested on: Arabidopsis thaliana cultured cells 87T; assay: Concerted sensitivity test on herbicide and antibiotic in Arabidopsis thaliana cultured cells; type: cell-based; conditions: for inhibition of the growth rate in combination with spectinomycin: both spectinomycin and herbicide, effect not observed with individual administration of the same concentration
Protocol: Arabidopsis thaliana cultured cells 87T were used in the experiment. Media comprising different concentrations of a group of herbicides and spectinomycin using a redifferentiation medium (Q. Yu. et al. Plant Physiol. 2017. 175(1). 186-193) as the base were added to each well of a 24-well plate. Specifically, a plate with varying concentrations of the group of herbicides of 0, 0.1, 1, 10, 50, and 100 μM in the direction of the X-axis of the plate and varying concentrations of an antibiotic spectinomycin of 0, 1, 10, and 100 μg/mL in the direction of the y-axis was prepared (FIG. 9A). Pinoxaden, tepraloxydim, tralkoxydim, cyhalofop butyl, and haloxyfop were used as the group of herbicides in each plate. 100 μL of cultured cells was added to each well and cultured under light-dark conditions in an artificial climate incubator. On days 3, 7, and 15 after culture, the growth status was checked to study the concerted sensitivity of a herbicide and antibiotic. • Results

[2] = tested on: Oryza sativa callus; assay: Herbicide selection of Oryza sativa callus on redifferentiation selection medium after plasmid bombardment; type: cell-based, Oryza sativa japonica (Nipponbare); conditions: callus introduced with pNC (no resistance) sensitive; redifferentiated individuals counted after about 6 weeks; tested 0.1-4.0 μM
Protocol: For the experiment, Oryza sativa japonica (Nipponbare) was used. Threshed Oryza sativa seeds were placed in a callus inducing medium, i.e., an N6D medium (Z. Shimatani et al. Nat Biol. 2017), and grown under conditions of 25° C. away from light within an artificial climate incubator to induce a primary callus. To prepare a callus plate for introducing a gene, the primary callus that had been actively growing for several weeks since induction of the callus from seeds was strained using a sterilized mesh. The refined callus was uniformly applied on filter paper placed on a callus inducing medium plate. A gene was introduced to a plate obtained by culturing the callus for 3 to 4 days within the artificial climate incubator. For selection of a transformant, a redifferentiation medium which is an MSRE medium (Z. Shimatani et al. Nat Biol. 2017) added with a suitable herbicide was used and cultured under conditions of 31.5° C. in a light-dark cycle of 12 hours within the artificial climate incubator. […]
After introduction of a gene, the plate was subjected to expansion culture under dark conditions in the artificial climate incubator for 3 to 4 days. […] The number of individuals redifferentiated from the callus clumps was counted as the selected individual count. • <Detection of Transgenesis in a Created Individual>

Structure (SMILES)	inhibition of the growth rate in combination with spectinomycin [1]	concentration at which a selection effect of the herbicide can be expected [2] [µM]	also measured
CCc1cc(C)cc(CC)c1-c1c(OC(=O)C(C)(C)C)n2n(c1=O)CCOCC2 [pinoxaden]	significant inhibition of the growth rate	–	herbicide concentration at which inhibition of growth was observed ([1]; herbicide alone, tested 0-100 μM, growth checked on days 3, 7, 15): ≥ 10 µM
CCO/N=C(\CC)C1=C(O)CC(c2c(C)cc(C)cc2C)CC1=O (centres unmarked) [tralkoxydim]	–	≥ 0.5	–
CN[C@@H]1[C@H](O)[C@H](NC)[C@H]2O[C@@]3(O)C(=O)C[C@@H](C)O[C@H]3O[C@@H]2[C@H]1O [spectinomycin]	–	–	colour of cultured cells (chloroplast development) ([1]; 100 μg/mL spectinomycin): Change in color to yellow; inhibition of the growth rate by spectinomycin alone ([1]; only spectinomycin, concentration range studied (0-100 μg/mL)): not inhibited
CC(Oc1ccc(Oc2ncc(C(F)(F)F)cc2Cl)cc1)C(=O)O (centres unmarked) [haloxyfop]	significant inhibition of the growth rate	≥ 0.1	–
CCCCOC(=O)[C@@H](C)Oc1ccc(Oc2ccc(C#N)cc2F)cc1 [cyhalofop butyl]	–	–	inhibition of the growth rate by herbicide alone ([1]; herbicide alone, within the range of concentrations studied (0-100 μM)): not observed
